Measurements reported in the supplement of paper PMC10307832.

Experiments:
Assay in all cases: relative viability (nuclei count vs DMSO), 5 days (fraction); higher = more cells survive
NCI-H2126 = system: NCI-H2126
Procedure, shortened: (§1)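 One day after seeding in 1536-well plates, lung cancer cell lines were dosed by pin tool. Dosing was either single-drug or a fixed anchor-drug dose plus five library-drug doses (not always all listed) in √10 steps. After 5 days, nuclei were stained in one fix-and-stain step and counted on 4× images, and relative viability is the nuclei count of treated wells over that of vehicle wells, given as the median of duplicate plates.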

NCI-H1395 = system: NCI-H1395
Procedure, shortened: as §1

NCI-H647 = system: NCI-H647
Procedure, shortened: as §1

NCI-H2009 = system: NCI-H2009
Procedure, shortened: as §1

NCI-H1355 = system: NCI-H1355
Procedure, shortened: as §1

NCI-H650 = system: NCI-H650
Procedure, shortened: as §1

LU99A = system: LU99A
Procedure, shortened: as §1

NCI-H322M = system: NCI-H322M
Procedure, shortened: as §1

PC-14 = system: PC-14
Procedure, shortened: as §1

BEN = system: BEN
Procedure, shortened: as §1

HCC-15 = system: HCC-15
Procedure, shortened: as §1

NCI-H2228 = system: NCI-H2228
Procedure, shortened: as §1

NCI-H2405 = system: NCI-H2405
Procedure, shortened: as §1

NCI-H838 = system: NCI-H838
Procedure, shortened: as §1

NCI-H661 = system: NCI-H661
Procedure, shortened: as §1

NCI-H23 = system: NCI-H23
Procedure, shortened: as §1

LCLC-97TM1 = system: LCLC-97TM1
Procedure, shortened: as §1

NCI-H2342 = system: NCI-H2342
Procedure, shortened: as §1

201T = system: 201T
Procedure, shortened: as §1

EPLC-272H = system: EPLC-272H
Procedure, shortened: as §1

NCI-H460 = system: NCI-H460
Procedure, shortened: as §1

NCI-H2085 = system: NCI-H2085
Procedure, shortened: as §1

HCC-78 = system: HCC-78
Procedure, shortened: as §1

## Cc1cn(-c2cc(NC(=O)c3ccc(C)c(Nc4nccc(-c5cccnc5)n4)c3)cc(C(F)(F)F)c2)cn1 [Nilotinib] + O=C(c1cc(Cc2n[nH]c(=O)c3ccccc23)ccc1F)N1CCN(C(=O)C2CC2)CC1 [Olaparib] (partner 8 µM)
NCI-H2126; first compound 0.001 µM
  relative viability: 0.902
NCI-H2126; first compound 0.003162 µM
  relative viability: 1.03
NCI-H2126; first compound 0.01 µM
  relative viability: 1.11
NCI-H2126; first compound 0.03162 µM
  relative viability: 0.876
NCI-H2126; first compound 0.1 µM
  relative viability: 0.83
NCI-H1395; first compound 0.001 µM
  relative viability: 0.472
NCI-H1395; first compound 0.01 µM
  relative viability: 0.473
NCI-H1395; first compound 0.03162 µM
  relative viability: 0.493
NCI-H1395; first compound 0.1 µM
  relative viability: 0.455
NCI-H647; first compound 0.001 µM
  relative viability: 0.527
NCI-H647; first compound 0.003162 µM
  relative viability: 0.735
NCI-H647; first compound 0.01 µM
  relative viability: 0.649
NCI-H647; first compound 0.03162 µM
  relative viability: 0.482
NCI-H647; first compound 0.1 µM
  relative viability: 0.544
NCI-H2009; first compound 0.001 µM
  relative viability: 0.588
NCI-H2009; first compound 0.003162 µM
  relative viability: 0.667
NCI-H2009; first compound 0.01 µM
  relative viability: 0.621
NCI-H2009; first compound 0.03162 µM
  relative viability: 0.599
NCI-H2009; first compound 0.1 µM
  relative viability: 0.9
NCI-H1355; first compound 0.001 µM
  relative viability: 0.748
NCI-H1355; first compound 0.003162 µM
  relative viability: 0.816
NCI-H1355; first compound 0.01 µM
  relative viability: 0.737
NCI-H1355; first compound 0.03162 µM
  relative viability: 0.785
NCI-H1355; first compound 0.1 µM
  relative viability: 0.763
NCI-H650; first compound 0.001 µM
  relative viability: 0.357
NCI-H650; first compound 0.003162 µM
  relative viability: 0.432
NCI-H650; first compound 0.01 µM
  relative viability: 0.454
NCI-H650; first compound 0.03162 µM
  relative viability: 0.36
NCI-H650; first compound 0.1 µM
  relative viability: 0.344
LU99A; first compound 0.001 µM
  relative viability: 0.2
LU99A; first compound 0.003162 µM
  relative viability: 0.201
LU99A; first compound 0.03162 µM
  relative viability: 0.221
LU99A; first compound 0.1 µM
  relative viability: 0.164
NCI-H322M; first compound 0.001 µM
  relative viability: 0.737
NCI-H322M; first compound 0.003162 µM
  relative viability: 0.712
NCI-H322M; first compound 0.01 µM
  relative viability: 0.678
NCI-H322M; first compound 0.03162 µM
  relative viability: 0.556
NCI-H322M; first compound 0.1 µM
  relative viability: 0.818
PC-14; first compound 0.001 µM
  relative viability: 0.266
PC-14; first compound 0.003162 µM
  relative viability: 0.253
PC-14; first compound 0.01 µM
  relative viability: 0.264
PC-14; first compound 0.03162 µM
  relative viability: 0.264
PC-14; first compound 0.1 µM
  relative viability: 0.339
BEN; first compound 0.001 µM
  relative viability: 1.11
BEN; first compound 0.003162 µM
  relative viability: 1.1
BEN; first compound 0.01 µM
  relative viability: 1.25
BEN; first compound 0.03162 µM
  relative viability: 0.996
BEN; first compound 0.1 µM
  relative viability: 1
HCC-15; first compound 0.001 µM
  relative viability: 0.612
HCC-15; first compound 0.003162 µM
  relative viability: 0.778
HCC-15; first compound 0.01 µM
  relative viability: 0.734
HCC-15; first compound 0.03162 µM
  relative viability: 0.692
HCC-15; first compound 0.1 µM
  relative viability: 0.638
NCI-H2228; first compound 0.001 µM
  relative viability: 0.459
NCI-H2228; first compound 0.003162 µM
  relative viability: 0.584
NCI-H2228; first compound 0.01 µM
  relative viability: 0.76
NCI-H2228; first compound 0.03162 µM
  relative viability: 0.384
NCI-H2228; first compound 0.1 µM
  relative viability: 0.835
NCI-H2405; first compound 0.001 µM
  relative viability: 0.837
NCI-H2405; first compound 0.003162 µM
  relative viability: 0.878
NCI-H2405; first compound 0.01 µM
  relative viability: 0.858
NCI-H2405; first compound 0.03162 µM
  relative viability: 0.728
NCI-H2405; first compound 0.1 µM
  relative viability: 0.629
NCI-H838; first compound 0.001 µM
  relative viability: 0.789
NCI-H838; first compound 0.003162 µM
  relative viability: 1.01
NCI-H838; first compound 0.01 µM
  relative viability: 0.878
NCI-H838; first compound 0.03162 µM
  relative viability: 0.838
NCI-H838; first compound 0.1 µM
  relative viability: 0.759
NCI-H661; first compound 0.001 µM
  relative viability: 0.754
NCI-H661; first compound 0.003162 µM
  relative viability: 0.893
NCI-H661; first compound 0.01 µM
  relative viability: 0.949
NCI-H661; first compound 0.03162 µM
  relative viability: 0.672
NCI-H661; first compound 0.1 µM
  relative viability: 0.748
NCI-H23; first compound 0.001 µM
  relative viability: 0.353
NCI-H23; first compound 0.003162 µM
  relative viability: 0.302
NCI-H23; first compound 0.01 µM
  relative viability: 0.321
NCI-H23; first compound 0.03162 µM
  relative viability: 0.295
NCI-H23; first compound 0.1 µM
  relative viability: 0.331
LCLC-97TM1; first compound 0.001 µM
  relative viability: 0.339
LCLC-97TM1; first compound 0.003162 µM
  relative viability: 0.467
LCLC-97TM1; first compound 0.01 µM
  relative viability: 0.461
LCLC-97TM1; first compound 0.03162 µM
  relative viability: 0.446
LCLC-97TM1; first compound 0.1 µM
  relative viability: 0.343
NCI-H2342; first compound 0.001 µM
  relative viability: 0.399
NCI-H2342; first compound 0.003162 µM
  relative viability: 0.457
NCI-H2342; first compound 0.01 µM
  relative viability: 0.464
NCI-H2342; first compound 0.03162 µM
  relative viability: 0.338
NCI-H2342; first compound 0.1 µM
  relative viability: 0.418
201T; first compound 0.001 µM
  relative viability: 0.843
201T; first compound 0.003162 µM
  relative viability: 0.876
201T; first compound 0.01 µM
  relative viability: 0.959
201T; first compound 0.03162 µM
  relative viability: 0.935
201T; first compound 0.1 µM
  relative viability: 0.869
EPLC-272H; first compound 0.001 µM
  relative viability: 0.605
EPLC-272H; first compound 0.003162 µM
  relative viability: 0.746
EPLC-272H; first compound 0.01 µM
  relative viability: 0.696
EPLC-272H; first compound 0.03162 µM
  relative viability: 0.448
EPLC-272H; first compound 0.1 µM
  relative viability: 0.513
NCI-H460; first compound 0.001 µM
  relative viability: 0.318
NCI-H460; first compound 0.003162 µM
  relative viability: 0.295
NCI-H460; first compound 0.01 µM
  relative viability: 0.496
NCI-H460; first compound 0.03162 µM
  relative viability: 0.27
NCI-H460; first compound 0.1 µM
  relative viability: 0.34
NCI-H2085; first compound 0.001 µM
  relative viability: 0.747
NCI-H2085; first compound 0.003162 µM
  relative viability: 0.834
NCI-H2085; first compound 0.01 µM
  relative viability: 0.797
NCI-H2085; first compound 0.03162 µM
  relative viability: 0.889
NCI-H2085; first compound 0.1 µM
  relative viability: 0.684
HCC-78; first compound 0.001 µM
  relative viability: 0.748
HCC-78; first compound 0.003162 µM
  relative viability: 0.602
HCC-78; first compound 0.01 µM
  relative viability: 0.877
HCC-78; first compound 0.03162 µM
  relative viability: 0.768
HCC-78; first compound 0.1 µM
  relative viability: 0.752
